Measurements reported in patent US8168651B2, “Protein kinase modulators” (Cylene Pharmaceuticals, Inc., priority 2008, dated 2012).
Read-outs that look alike come from different tables or passages of the source.

Assays:
[1] = system: HCT-116 human colorectal carcinoma cells; assay: Cell-proliferation assay using Alamar Blue dye; assay type: cell-based; settings: Homo sapiens;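 note: cells exposed to compound for about 4 days, then Alamar Blue added and dye fluorescence read after about 4 h, compared with medium-only control wells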
[2] = system: MV-4-11; assay: Cell proliferation modulatory activity, MV-4-11; assay type: cell-based; settings: Homo sapiens, MV4-11
[3] = target: recombinant human PIM1 (Homo sapiens (Human), UniProt P11309); assay: PIM-1 kinase activity in cell-free in vitro assay; assay type: biochemical; settings: for inhibition at 0.5 µM: 500 nM compound, read-out: PIM-1: % inh 500 nM
recombinant human PIM1, sequence (P11309 whole entry): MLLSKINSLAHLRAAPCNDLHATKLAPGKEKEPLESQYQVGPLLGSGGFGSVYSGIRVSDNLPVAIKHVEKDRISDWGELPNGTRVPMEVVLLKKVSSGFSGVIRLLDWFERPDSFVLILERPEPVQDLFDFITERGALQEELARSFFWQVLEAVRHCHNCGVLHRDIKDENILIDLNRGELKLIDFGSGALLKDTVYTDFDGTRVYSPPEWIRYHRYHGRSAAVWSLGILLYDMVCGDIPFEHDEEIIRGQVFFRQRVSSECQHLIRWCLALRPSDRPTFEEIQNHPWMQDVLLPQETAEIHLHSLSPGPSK

[4] = system: K-562; assay: Cell proliferation modulatory activity, K-562; assay type: cell-based; settings: Homo sapiens, K562
[5] = system: Jurkat; assay: Cell proliferation modulatory activity, Jurkat; assay type: cell-based; settings: Homo sapiens
[6] = target: PARP-HSA enzyme (Homo sapiens (Human), UniProt P09874); assay: PARP assay (chemiluminescent PARP assay kit, Trevigen); assay type: biochemical; settings: for PARP Inhibition: at 1 μM
PARP-HSA enzyme, sequence (P09874 whole entry): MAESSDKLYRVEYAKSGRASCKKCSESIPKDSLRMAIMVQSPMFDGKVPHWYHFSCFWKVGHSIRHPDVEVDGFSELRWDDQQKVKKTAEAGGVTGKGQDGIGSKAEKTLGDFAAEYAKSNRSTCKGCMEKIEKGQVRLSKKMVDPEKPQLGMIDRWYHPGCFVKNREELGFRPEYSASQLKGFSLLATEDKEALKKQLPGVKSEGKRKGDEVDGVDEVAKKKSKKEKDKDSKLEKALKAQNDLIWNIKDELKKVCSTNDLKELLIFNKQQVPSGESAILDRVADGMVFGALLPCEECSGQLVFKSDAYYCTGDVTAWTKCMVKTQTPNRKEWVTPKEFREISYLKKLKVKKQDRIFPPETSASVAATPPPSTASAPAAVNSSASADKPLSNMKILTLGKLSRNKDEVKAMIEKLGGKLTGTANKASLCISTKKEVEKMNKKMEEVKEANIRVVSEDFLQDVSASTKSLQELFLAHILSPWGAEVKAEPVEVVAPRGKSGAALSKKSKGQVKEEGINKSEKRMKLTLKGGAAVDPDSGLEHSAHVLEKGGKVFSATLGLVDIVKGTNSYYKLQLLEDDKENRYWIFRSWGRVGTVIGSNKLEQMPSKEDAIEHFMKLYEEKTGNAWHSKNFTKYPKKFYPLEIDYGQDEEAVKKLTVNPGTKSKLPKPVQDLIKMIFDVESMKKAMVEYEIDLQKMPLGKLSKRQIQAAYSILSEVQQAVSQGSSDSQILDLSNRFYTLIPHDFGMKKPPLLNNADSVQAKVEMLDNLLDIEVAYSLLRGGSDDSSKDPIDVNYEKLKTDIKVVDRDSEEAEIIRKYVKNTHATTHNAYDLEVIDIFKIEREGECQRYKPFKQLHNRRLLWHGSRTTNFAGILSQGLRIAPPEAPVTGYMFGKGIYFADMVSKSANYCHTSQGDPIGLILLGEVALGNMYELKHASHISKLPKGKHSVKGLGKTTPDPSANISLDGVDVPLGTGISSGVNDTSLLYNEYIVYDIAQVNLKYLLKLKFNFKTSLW
Description: Modulatory activity of compounds described herein was assessed in vitro in cell-free CK2 assays. Modulatory activity of compounds described herein also are assessed in vitro in cell-free PARP assays. These assays are described hereafter.
PARP assays are conducted using a chemiluminescent PARP assay kit (Trevigen). Briefly, reactions are performed in Histone-coated strip wells, by adding 10 microliters test compound dissolved in 1×PARP Buffer (prepared by mixing 20×PARP buffer diluted with high-purity water) and 15 microliters diluted PARP-HSA enzyme (diluted in 1×PARP buffer, 0.1 unit per well) to 25 microliters PARP cocktail (prepared from 10×PARP cocktail and 10× activated DNA, both 2.5 microliters per well and 20 microliters per well of 1×PARP buffer). The reactions are incubated at ambient temperature for 60 minutes, then the liquid was removed. After washing the wells four times with PBS (200 ul), 50 microliters of STREP-HRP (Horseradish Peroxidase) solution (diluted 500-fold in 1× Strep-Diluent) was added and the reactions were allowed to incubate for 30 minutes at ambient temperature. The liquid was removed and, after washing the wells four times with PBS (200 ul), 50 microliters each of PeroxyGlo A and B (Chemiluminescent Horseradish Peroxidase substrates) are added and the resulting chemiluminescence quantified on the SpectraMax M5 plate reader.

[7] = system: MDAMB231; assay: Cell-proliferation assay using Alamar Blue dye; assay type: cell-based; settings: Homo sapiens, MDA-MB-231
Description: (§1) A representative cell-proliferation assay protocol using Alamar Blue dye (stored at 4° C., use 20 ul per well) is described hereafter.
96-Well Plate Setup and Compound Treatment
(§2) • a. Split and trypsinize cells. • b. Count cells using hemocytometer. • c. Plate 4,000-5,000 cells per well in 100 μl of medium and seed into a 96-well plate according to the following plate layout. Add cell culture medium only to wells B10 to B12. Wells B1 to B9 have cells but no compound added.
(§3) • d. Add 100 μl of 2× drug dilution to each well in a concentration shown in the plate layout above. At the same time, add 100 μl of media into the control wells (wells B10 to B12). Total volume is 200 μl/well. • e. Incubate four (4) days at 37° C., 5% CO2 in a humidified incubator. • f. Add 20 μl Alamar Blue reagent to each well. • g. Incubate for four (4) hours at 37° C., 5% CO2 in a humidified incubator. • h. Record fluorescence at an excitation wavelength of 544 nm and emission wavelength of 590 nm using a microplate reader.
(§4) In the assays, cells are cultured with a test compound for approximately four days, the dye then is added to the cells and fluorescence of […] dye is detected after approximately four hours. Different types of cells can be utilized in the assays (e.g., HCT-116 human colorectal carcinoma cells, PC-3 human prostatic cancer cells and MiaPaca human pancreatic carcinoma cells). Anti-proliferative effects of representative compounds are provided hereafter

[8] = target: recombinant human CK2 (Homo sapiens (Human), UniProt P68400); assay: CK2 assay (cell-free, 33P-ATP filter plate); assay type: biochemical; settings: 500 nM compound, cell-free; read-out: CK2: % inh 500 nM
recombinant human CK2, sequence (P68400 whole entry): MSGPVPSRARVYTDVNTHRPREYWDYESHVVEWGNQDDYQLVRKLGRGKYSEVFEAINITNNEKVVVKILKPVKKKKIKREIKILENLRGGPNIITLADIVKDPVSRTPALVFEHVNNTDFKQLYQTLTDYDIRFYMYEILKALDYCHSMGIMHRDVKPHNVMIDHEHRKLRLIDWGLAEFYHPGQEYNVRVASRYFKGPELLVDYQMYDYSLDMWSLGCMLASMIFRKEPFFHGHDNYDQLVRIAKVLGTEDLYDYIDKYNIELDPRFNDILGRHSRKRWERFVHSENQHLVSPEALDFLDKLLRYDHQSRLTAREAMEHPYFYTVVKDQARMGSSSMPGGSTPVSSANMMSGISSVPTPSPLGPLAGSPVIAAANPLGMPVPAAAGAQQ
recombinant human CK2, sequence (P67870 whole entry partner): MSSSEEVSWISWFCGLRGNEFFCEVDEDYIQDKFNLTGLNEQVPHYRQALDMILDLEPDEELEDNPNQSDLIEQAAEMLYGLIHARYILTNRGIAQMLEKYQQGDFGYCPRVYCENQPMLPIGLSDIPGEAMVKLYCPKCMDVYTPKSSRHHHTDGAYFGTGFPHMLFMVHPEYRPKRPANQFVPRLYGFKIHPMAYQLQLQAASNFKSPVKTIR

[9] = target: Flt3 (Homo sapiens (Human), UniProt P36888); assay: FLT-3 kinase activity in cell free in vitro assay; assay type: biochemical; settings: cell-free; read-out: FLT-3
Flt3, sequence (P36888 27-993): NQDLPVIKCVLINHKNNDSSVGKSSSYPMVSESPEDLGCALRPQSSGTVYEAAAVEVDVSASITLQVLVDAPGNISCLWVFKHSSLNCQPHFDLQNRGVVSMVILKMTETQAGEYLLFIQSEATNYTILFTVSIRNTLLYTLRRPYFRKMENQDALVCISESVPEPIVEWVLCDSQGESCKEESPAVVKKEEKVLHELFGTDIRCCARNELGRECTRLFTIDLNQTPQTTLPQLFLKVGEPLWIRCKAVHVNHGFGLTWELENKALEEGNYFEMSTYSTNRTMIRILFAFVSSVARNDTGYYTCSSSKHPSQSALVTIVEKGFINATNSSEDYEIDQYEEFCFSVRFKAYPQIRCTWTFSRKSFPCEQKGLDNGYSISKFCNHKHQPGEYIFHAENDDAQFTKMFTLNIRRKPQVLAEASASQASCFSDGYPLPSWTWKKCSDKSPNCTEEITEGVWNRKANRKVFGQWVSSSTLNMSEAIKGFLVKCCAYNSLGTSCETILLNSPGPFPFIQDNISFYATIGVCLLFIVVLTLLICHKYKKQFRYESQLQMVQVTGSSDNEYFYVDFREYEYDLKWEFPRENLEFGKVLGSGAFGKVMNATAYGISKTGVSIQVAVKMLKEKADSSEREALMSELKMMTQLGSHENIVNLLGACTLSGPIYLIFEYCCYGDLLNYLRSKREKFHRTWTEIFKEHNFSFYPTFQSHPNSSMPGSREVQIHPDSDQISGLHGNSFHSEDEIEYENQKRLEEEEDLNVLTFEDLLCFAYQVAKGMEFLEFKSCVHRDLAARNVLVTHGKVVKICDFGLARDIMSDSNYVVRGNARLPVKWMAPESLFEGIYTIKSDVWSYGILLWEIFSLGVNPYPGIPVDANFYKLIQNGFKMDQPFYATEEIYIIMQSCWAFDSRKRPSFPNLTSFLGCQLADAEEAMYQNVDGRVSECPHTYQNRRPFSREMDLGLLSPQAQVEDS

[10] = system: MV-411; assay: MV-411 IC50 (Table 46); assay type: cell-based; settings: Homo sapiens, MV4-11
[11] = system: K-562; assay: K-562 IC50 (Table 46); assay type: cell-based; settings: Homo sapiens, K562
[12] = system: MiaPaca human pancreatic carcinoma cells; assay: Cell-proliferation assay using Alamar Blue dye; assay type: cell-based; settings: MIA PaCa-2
Description: as §1, §2, §3, §4

[13] = system: MDA MB231; assay: MDA MB231 IC50 (Table 46); assay type: cell-based; settings: Homo sapiens, MDA-MB-231
[14] = HCT-116, read-out: HCT-116 (uM), cell proliferation modulatory activity, HCT-116, second column
[15] = HCT-116, HCT-116, second column, read-out: HCT-116 (uM), cell proliferation modulatory activity

Row | Structure (SMILES) | inhibition at 0.5 µM ([3]; cell-free) [%] | IC50 ([3]; cell-free) [nM] | IC50 [5] [µM] | IC50 [7] [µM] | also measured
1 | CNC(=O)c1cccc(Nc2nc3cc(-c4nnn[nH]4)ccc3c3sccc23)c1 | 81.7 | 329 | 4.22 |  | IC50 [1, 14]: > 10 µM
2 | O=C(O)c1ccc2c(c1)nc(Nc1ccc(Cl)cc1)c1ccncc12 | 83 | 284 | 2.52 |  | IC50 [1, 14]: 6.72 µM; IC50 [2]: 1.56 µM; IC50 [4]: 8.65 µM
3 | O=C(NC1CC1)c1cccc(Nc2nc3cc(-c4nnn[nH]4)ccc3c3sccc23)c1 | 46.8 |  | 6.97 |  | IC50 [1, 14]: > 10 µM
4 | Fc1cccc(Nc2nc3cc(-c4nnn[nH]4)ccc3c3cnccc23)c1 | 45 |  | 9.43 |  | 
5 | CN(C)CCNc1nc2cc(C(=O)O)ccc2c2ccccc12 [drawing 563] |  |  |  |  | PARP Inhibition [6]: 15% (at 1 μM)
6 | O=c1[nH]c2cc(-c3nn[nH]n3)ccc2c2sccc12 |  |  |  |  | PARP % inhib @ 1 uM ([6]; 1 uM): 39%
7 | O=C(O)c1ccc2c(c1)nc(Nc1ccccc1)c1ccccc12 [drawing 564] |  |  |  |  | PARP Inhibition [6]: 9% (at 1 μM)
8 | O=C(O)c1ccc2c(c1)nc(NCc1ccccc1)c1ccncc12 [drawing 1000] |  |  |  | 38 | 
9 | O=C(O)c1ccc2c(c1)nc(Nc1cccc(Cl)c1)c1ccncc12 [drawing 1512] | 90 |  | 3.42 |  | IC50 [1, 15]: 5.09 µM; IC50 [2]: 1.68 µM; inhibition at 0.5 µM [8]: 102%; IC50 [4]: 4.39 µM
10 | O=C(O)c1ccc2c(c1)nc(Nc1cc(F)cc(F)c1)c1ccsc12 | 84.4 | 82 | 5.86 |  | IC50 [1, 14]: > 10 µM; IC50 [2]: 0.333 µM; IC50 [4]: > 10 µM
11 | O=C(O)c1ccc2c(c1)nc(Nc1ccc(F)c(Cl)c1)c1ccncc12 | 82 | 115 | 2.68 |  | IC50 [1, 14]: 4.34 µM; IC50 [2]: 1.7 µM; IC50 [9]: 41 nM; IC50 [4]: 7.44 µM
12 | CNC(=O)c1cccc(Nc2nc3cc(C(=O)O)ccc3c3sccc23)c1 | 18.3 |  | 8.69 |  | IC50 [1, 14]: > 10 µM
13 | O=C(O)c1ccc2c(c1)nc(Nc1cc(Cl)cc(Cl)c1)c1ccsc12 | 67.1 |  | 4.31 |  | IC50 [1, 14]: 8.76 µM
14 | COCCOc1ccc(Nc2nc3c(-c4nnc[nH]4)cccc3c3cnccc23)c(F)c1 |  |  |  |  | IC50 [10]: < 100 nM; IC50 [11]: < 500 nM; IC50 [12]: < 1000 nM; IC50 [13]: < 1000 nM; IC50 [3]: < 100 nM
15 | O=C(O)c1ccc2c(c1)nc(Nc1cccc(F)c1)c1ccsc12 | 82.7 | 136 | 5.92 |  | IC50 [1, 14]: > 10 µM; IC50 [2]: 0.475 µM; IC50 [4]: > 10 µM
16 | C#Cc1cccc(Nc2nc3cc(C(=O)O)ccc3c3cnccc23)c1 [drawing 1555] | 84.1 | 296 | 2.78 |  | IC50 [2]: > 10 µM; IC50 [4]: 3.33 µM
17 | O=C(O)c1ccc2c(c1)nc(Nc1cccc(F)c1)c1ccncc12 | 96.1 | 143 | 3.2 |  | IC50 [2]: 2.28 µM; IC50 [4]: > 10 µM
18 | O=C(O)c1ccc2c(c1)nc(Nc1ccccc1)c1ccsc12 | 15.7 | 454 | 6.12 |  | IC50 ([1]; HCT-116, read-out: HCT-116 (uM), cell proliferation modulatory activity, HCT-116, first column): 10 µM; IC50 [1, 14]: > 10 µM; IC50 [2]: 8.33 µM; IC50 [4]: > 10 µM
19 | COC(=O)c1ccc2c(c1)[nH]c(=O)c1ccncc12 [drawing 562] |  |  |  |  | IC50 ([6]; read-out: PARP Inhibition IC50): 800 nM
20 | COc1cccc(Nc2nc3cc(C(=O)O)ccc3c3cnccc23)c1 | 75.9 | 88 | 6.52 |  | IC50 [2]: 1.12 µM; IC50 [9]: 9 nM; IC50 [4]: 5.86 µM
21 | C#Cc1cccc(Nc2nc3cc(C(=O)O)ccc3c3cnccc23)c1 [drawing 998] |  |  |  | 11.8 | 
22 | Clc1cccc(Nc2nc3cc(-c4nnn[nH]4)ccc3c3sccc23)c1 | 83.3 | 345 | 8.89 |  | 
23 | c1ccc(Nc2nc3cc(-c4nnc[nH]4)ccc3c3sccc23)cc1 | -3.3 |  | 7.6 |  | IC50 [1, 15]: 4.9 µM; IC50 [4]: 6.26 µM
24 | C#Cc1cccc(Nc2nc3cc(C(=O)O)ccc3c3cncnc23)c1 [drawing 1544] | 65.9 | 306 | 3.34 |  | IC50 [1, 15]: 5.86 µM; IC50 [2]: 0.464 µM; IC50 [4]: 2.48 µM

Second part, led by results:

Row | inhibition at 0.5 µM ([3]; cell-free) [%] | IC50 ([3]; cell-free) [nM] | IC50 [5] [µM] | IC50 [7] [µM] | Structure (SMILES) | also measured
25 | 68.2 | 370 | 0.882 |  | O=C(O)c1ccc2c(c1)nc(Nc1cccc(Cl)c1)c1ncncc12 | IC50 [1, 14]: 7.19 µM; IC50 [2]: > 10 µM; IC50 [4]: 1.13 µM
26 | -3.02 |  | 0.683 |  | COC(=O)c1ccc2c(c1)nc(Nc1ccccc1)c1ccncc12 | 
27 |  |  |  | 2.63 | C#Cc1cccc(Nc2nc3cc(C(=O)O)ccc3c3cnc(NCC4CC4)nc23)c1 [drawing 1039] | 
28 |  |  |  | > 50 | O=C(O)c1ccc2c(c1)nc(NC1CC1)c1ccncc12 [drawing 1072] | 
29 |  |  |  | > 50 | Nc1ncc2c(n1)c(NC1CC1)nc1cc(C(=O)O)ccc12 [drawing 1077] | 
30 |  |  |  | 34.2 | COC(=O)c1ccc2c(c1)nc(NC1CC1)c1nc(SC)ncc12 [drawing 1074] | 
31 |  |  |  | > 50 | O=C(O)c1ccc2c(c1)nc(Nc1cncc(C3CC3)c1)c1ccncc12 [drawing 1052] | 
32 |  |  |  | 23.5 | O=C(O)c1ccc2c(c1)nc(NC1CC1)c1nc(NCc3ccccc3)ncc12 [drawing 1050] | 
33 |  |  |  | 8.38 | C#Cc1cccc(Nc2nc3cc(C(=O)O)ccc3c3cnc(NCC4CCCO4)nc23)c1 (stereo not shown) [drawing 1038] | 
34 |  |  |  | 4.36 | CCCNc1ncc2c(n1)c(NC1CC1)nc1cc(C(=O)O)ccc12 [drawing 1078] | 
35 |  |  |  | 6.88 | O=C(O)c1ccc2c(c1)nc(NC1CC1)c1nc(Nc3ccccc3)ncc12 [drawing 1051] | 
36 |  |  |  | > 50 | O=C(O)c1ccc2c(c1)nc(NC1CC1)c1nc(SCc3ccccc3Cl)ncc12 [drawing 1047] | 
37 | 80 | > 1100 | 2.59 |  | O=C(O)c1ccc2c(c1)nc(Nc1cc(F)cc(F)c1)c1ncncc12 | IC50 [1, 14]: 4.05 µM; IC50 [4]: 2.41 µM
38 | 19.4 |  | 3.4 |  | COC(=O)c1ccc2c(c1)nc(Nc1cccc(OC)c1)c1ccncc12 | 
39 | 10.2 |  | 4.25 |  | COC(=O)c1ccc2c(c1)nc(Nc1ccc(F)c(Cl)c1)c1ccncc12 | IC50 [1, 14]: 3.94 µM
40 |  |  |  | 7.23 | COC(=O)c1ccc2c(c1)nc(NC1CC1)c1nc(SCc3ccccc3Cl)ncc12 [drawing 1044] | 
41 |  |  |  | > 50 | CN(C)CCNc1nc2cc(C(=O)O)ccc2c2cnc(NC3CC3)nc12 [drawing 1075] | 
42 | 54.8 | 368 | 4.29 |  | O=C(O)c1ccc2c(c1)nc(Nc1ccc(F)c(Cl)c1)c1ncncc12 | 
43 |  |  |  | > 50 | O=C(O)c1ccc2c(c1)nc(NCc1cccnc1)c1nc(NC3CC3)ncc12 [drawing 1058] | 
44 |  |  |  | 7.22 | O=C(O)c1ccc2c(c1)nc(NC1CC1)c1nc(NC3CC3)ncc12 [drawing 1049] | 
45 |  |  |  | > 50 | Cc1cc(Nc2ncc3c(n2)c(Nc2ccc(F)c(Cl)c2)nc2cc(C(=O)O)ccc23)[nH]n1 [drawing 1068] | 
46 | 20.8 |  | 0.728 |  | CNc1ncc2c(n1)c(Nc1ccccc1)nc1cc(C(=O)O)ccc12 | IC50 [1, 14]: 2.99 µM; IC50 [2]: > 10 µM
